In ChEMBL document CHEMBL3991601, “The target landscape of clinical kinase drugs” (Science, 2017):
The source made the active and inactive calls. Rule as the data show it, for most assays here: actives have a measured Kd and inactives only a lower limit.

Key:
[1] = target: RAC-alpha serine/threonine-protein kinase (Homo sapiens, UniProt P31749)
[2] = target: T1, ATP-dependent RNA helicase DDX1 (Homo sapiens, UniProt Q92499)
T1 sequence (Q92499 whole entry): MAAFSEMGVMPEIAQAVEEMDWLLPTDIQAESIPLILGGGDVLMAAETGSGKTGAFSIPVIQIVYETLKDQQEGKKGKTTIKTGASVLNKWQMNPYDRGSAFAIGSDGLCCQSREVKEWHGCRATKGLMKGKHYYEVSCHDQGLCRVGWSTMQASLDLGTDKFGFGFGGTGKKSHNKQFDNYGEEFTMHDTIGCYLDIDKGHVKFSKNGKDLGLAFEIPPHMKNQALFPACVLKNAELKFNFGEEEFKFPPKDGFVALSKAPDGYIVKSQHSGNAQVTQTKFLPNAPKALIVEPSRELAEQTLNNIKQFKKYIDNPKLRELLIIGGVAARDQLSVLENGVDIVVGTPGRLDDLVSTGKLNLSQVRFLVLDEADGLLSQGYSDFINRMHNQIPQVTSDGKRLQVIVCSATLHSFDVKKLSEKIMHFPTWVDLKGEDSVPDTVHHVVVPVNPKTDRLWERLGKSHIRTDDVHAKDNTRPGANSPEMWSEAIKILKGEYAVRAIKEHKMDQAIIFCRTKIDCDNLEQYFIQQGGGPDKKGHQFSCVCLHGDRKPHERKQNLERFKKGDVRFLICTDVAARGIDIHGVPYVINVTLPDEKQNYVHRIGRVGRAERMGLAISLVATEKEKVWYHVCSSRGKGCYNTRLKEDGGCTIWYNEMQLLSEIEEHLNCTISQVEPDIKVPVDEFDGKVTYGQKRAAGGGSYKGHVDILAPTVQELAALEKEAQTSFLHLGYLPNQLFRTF

[3] = target: Serine/threonine-protein kinase/endoribonuclease IRE2 (Homo sapiens, UniProt Q76MJ5)
[4] = target: Tyrosine-protein kinase Fyn (Homo sapiens, UniProt P06241)
Heme oxygenase 2 = target: T2, Heme oxygenase 2 (Homo sapiens, UniProt P30519)
T2 sequence (P30519 whole entry): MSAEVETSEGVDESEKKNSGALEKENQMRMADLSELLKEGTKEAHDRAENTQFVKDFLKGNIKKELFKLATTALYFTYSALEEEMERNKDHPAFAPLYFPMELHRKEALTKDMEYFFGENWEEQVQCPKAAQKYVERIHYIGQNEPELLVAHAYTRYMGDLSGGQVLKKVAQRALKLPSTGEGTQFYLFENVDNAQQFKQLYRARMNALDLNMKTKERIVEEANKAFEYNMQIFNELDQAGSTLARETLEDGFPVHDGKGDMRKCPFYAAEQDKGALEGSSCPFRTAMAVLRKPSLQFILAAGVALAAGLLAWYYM

[5] = target: Interleukin-1 receptor-associated kinase 1 (Homo sapiens, UniProt P51617)
[6] = target: T3, Dual specificity mitogen-activated protein kinase kinase 5 (Homo sapiens, UniProt Q13163)
T3 sequence (Q13163 whole entry): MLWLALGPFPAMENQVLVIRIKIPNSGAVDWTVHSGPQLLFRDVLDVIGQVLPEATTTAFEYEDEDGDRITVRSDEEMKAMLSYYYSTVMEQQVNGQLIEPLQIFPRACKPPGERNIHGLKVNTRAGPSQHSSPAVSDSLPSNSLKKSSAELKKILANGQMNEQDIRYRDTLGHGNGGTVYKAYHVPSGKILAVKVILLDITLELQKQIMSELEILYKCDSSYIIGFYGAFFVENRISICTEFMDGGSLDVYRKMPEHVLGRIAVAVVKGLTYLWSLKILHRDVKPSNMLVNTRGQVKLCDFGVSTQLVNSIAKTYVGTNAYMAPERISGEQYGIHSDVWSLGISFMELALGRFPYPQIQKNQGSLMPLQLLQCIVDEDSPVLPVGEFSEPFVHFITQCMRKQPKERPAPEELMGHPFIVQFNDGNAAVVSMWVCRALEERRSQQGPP

[7] = target: T4, Mitogen-activated protein kinase kinase kinase 2 (Homo sapiens, UniProt Q9Y2U5)
T4 sequence (Q9Y2U5 whole entry): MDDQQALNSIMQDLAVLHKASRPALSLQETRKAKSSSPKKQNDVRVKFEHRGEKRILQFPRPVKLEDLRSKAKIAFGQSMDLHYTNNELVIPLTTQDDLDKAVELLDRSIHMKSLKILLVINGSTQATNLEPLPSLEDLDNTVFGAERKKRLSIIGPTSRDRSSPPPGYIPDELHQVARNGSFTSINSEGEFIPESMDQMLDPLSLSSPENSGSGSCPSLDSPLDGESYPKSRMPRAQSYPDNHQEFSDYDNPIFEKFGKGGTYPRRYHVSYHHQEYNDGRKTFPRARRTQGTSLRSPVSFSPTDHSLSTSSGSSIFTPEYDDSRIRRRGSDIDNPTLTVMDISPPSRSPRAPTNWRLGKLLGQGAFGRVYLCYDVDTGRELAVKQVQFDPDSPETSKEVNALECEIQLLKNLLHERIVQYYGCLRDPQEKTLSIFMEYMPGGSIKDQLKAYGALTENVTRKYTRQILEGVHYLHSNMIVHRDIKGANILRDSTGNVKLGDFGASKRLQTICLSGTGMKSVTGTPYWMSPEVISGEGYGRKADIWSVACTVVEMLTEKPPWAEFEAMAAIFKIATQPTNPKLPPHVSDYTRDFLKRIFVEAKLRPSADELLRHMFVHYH

[8] = target: T5, Phosphorylase b kinase gamma catalytic chain, liver/testis isoform (Homo sapiens, UniProt P15735)
T5 sequence (P15735 whole entry): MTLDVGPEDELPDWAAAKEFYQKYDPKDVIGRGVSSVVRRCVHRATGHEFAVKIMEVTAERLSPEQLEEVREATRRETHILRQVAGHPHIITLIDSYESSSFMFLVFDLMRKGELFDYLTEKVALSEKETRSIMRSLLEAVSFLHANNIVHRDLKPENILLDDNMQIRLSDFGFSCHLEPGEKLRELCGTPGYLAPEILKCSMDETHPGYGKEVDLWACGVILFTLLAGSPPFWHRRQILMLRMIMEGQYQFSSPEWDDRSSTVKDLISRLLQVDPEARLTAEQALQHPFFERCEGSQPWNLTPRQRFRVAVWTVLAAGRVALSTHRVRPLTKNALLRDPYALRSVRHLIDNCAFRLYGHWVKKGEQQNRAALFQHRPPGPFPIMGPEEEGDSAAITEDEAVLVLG
Also: in the data inactive means no Kd found up to 30 µM.

Sequence of Serine/threonine-protein kinase/endoribonuclease IRE2 (Q76MJ5 whole entry): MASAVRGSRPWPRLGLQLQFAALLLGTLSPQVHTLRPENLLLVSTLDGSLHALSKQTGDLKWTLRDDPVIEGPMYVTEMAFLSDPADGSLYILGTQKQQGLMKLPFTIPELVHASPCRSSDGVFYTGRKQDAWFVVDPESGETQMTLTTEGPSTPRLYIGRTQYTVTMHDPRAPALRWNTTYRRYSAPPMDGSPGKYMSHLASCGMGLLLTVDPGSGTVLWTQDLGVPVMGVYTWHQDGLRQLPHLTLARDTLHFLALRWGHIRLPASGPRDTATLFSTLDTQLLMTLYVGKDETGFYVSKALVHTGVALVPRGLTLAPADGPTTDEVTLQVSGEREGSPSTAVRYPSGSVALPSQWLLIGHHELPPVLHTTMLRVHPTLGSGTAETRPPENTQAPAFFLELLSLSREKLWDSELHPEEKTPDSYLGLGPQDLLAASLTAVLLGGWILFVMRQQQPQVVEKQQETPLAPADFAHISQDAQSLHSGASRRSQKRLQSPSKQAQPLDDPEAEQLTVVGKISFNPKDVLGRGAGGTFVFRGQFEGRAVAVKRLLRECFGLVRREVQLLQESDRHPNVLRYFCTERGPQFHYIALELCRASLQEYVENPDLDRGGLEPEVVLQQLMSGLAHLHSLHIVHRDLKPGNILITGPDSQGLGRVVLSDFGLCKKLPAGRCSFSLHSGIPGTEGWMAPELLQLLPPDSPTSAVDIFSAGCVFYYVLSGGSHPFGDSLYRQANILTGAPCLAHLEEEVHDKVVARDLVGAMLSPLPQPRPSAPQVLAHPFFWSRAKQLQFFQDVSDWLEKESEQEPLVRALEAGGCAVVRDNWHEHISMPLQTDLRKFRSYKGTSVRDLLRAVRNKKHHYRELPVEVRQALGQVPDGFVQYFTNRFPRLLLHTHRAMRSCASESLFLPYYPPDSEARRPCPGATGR
Sequence of Interleukin-1 receptor-associated kinase 1 (P51617 whole entry): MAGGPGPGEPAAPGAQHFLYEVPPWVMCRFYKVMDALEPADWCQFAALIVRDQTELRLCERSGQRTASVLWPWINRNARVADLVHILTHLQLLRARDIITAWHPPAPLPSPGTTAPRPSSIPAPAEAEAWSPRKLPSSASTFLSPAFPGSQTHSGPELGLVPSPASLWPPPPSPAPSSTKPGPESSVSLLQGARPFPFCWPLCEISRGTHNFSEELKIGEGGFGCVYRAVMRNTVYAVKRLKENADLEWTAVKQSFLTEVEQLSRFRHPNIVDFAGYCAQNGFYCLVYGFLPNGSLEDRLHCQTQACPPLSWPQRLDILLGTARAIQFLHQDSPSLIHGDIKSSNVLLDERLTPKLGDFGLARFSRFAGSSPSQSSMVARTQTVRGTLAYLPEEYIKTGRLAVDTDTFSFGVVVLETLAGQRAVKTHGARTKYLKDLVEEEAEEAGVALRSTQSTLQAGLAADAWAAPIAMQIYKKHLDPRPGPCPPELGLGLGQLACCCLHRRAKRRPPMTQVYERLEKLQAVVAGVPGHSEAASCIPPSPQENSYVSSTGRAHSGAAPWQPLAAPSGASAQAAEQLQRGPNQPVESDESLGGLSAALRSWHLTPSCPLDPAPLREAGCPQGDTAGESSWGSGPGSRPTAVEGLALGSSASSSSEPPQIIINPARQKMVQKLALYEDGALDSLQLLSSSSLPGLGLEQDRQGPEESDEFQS
Sequence of RAC-alpha serine/threonine-protein kinase (P31749 whole entry): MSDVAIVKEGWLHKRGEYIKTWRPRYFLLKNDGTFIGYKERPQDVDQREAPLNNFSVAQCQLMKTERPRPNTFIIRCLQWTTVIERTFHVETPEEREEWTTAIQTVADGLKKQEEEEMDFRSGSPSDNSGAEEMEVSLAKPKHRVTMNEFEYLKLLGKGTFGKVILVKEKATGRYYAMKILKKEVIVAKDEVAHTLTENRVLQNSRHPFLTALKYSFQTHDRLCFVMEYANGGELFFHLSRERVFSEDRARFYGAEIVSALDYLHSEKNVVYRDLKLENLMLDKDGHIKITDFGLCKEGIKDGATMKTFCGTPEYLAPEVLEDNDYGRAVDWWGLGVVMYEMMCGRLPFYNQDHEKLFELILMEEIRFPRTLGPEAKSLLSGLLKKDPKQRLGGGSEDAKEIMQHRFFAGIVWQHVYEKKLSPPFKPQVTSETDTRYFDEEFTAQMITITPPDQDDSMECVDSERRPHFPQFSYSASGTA
Sequence of Tyrosine-protein kinase Fyn (P06241 whole entry): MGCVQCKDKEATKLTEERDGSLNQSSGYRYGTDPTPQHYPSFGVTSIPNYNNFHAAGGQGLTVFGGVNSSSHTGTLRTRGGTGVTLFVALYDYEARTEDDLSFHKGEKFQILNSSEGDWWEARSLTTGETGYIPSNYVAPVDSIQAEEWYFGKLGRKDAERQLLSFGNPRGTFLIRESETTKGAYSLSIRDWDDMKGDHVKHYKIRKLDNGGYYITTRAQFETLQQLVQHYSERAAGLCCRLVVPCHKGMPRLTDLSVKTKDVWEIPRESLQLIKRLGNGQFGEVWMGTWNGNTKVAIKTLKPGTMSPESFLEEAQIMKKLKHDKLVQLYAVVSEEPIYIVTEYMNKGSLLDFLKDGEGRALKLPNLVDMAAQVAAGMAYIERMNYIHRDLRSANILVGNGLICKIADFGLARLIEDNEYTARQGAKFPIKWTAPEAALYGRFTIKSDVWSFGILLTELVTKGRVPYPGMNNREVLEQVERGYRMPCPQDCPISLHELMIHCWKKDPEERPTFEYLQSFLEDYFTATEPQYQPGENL

Kd [1] | Kd [2] | Kd [3] | Kd [4] | Kd (Heme oxygenase 2) | Kd [5] | Kd [6] | Kd [7] | Kd [8] | Structure (SMILES)
> 30 µM (inactive) | > 30 µM (inactive) | > 30 µM (inactive) | 0.023 µM (active) | > 30 µM (inactive) | > 30 µM (inactive) | > 30 µM (inactive) | > 30 µM (inactive) | 2.41 µM (active) | CC(C)c1cc(CNc2nc(Nc3cc(C4CC4)[nH]n3)cc(N3CCN(C)CC3)n2)on1 [XL-228]
> 30 µM (inactive) | > 30 µM (inactive) | > 30 µM (inactive) | > 30 µM (inactive) | > 30 µM (inactive) | > 30 µM (inactive) | > 30 µM (inactive) | > 30 µM (inactive) | > 30 µM (inactive) | C[C@@H](N)c1ccc(C(=O)Nc2ccnc3[nH]ccc23)cc1 [Y-39983]
> 30 µM (inactive) | > 30 µM (inactive) | > 30 µM (inactive) | > 30 µM (inactive) | > 30 µM (inactive) | > 30 µM (inactive) | > 30 µM (inactive) | > 30 µM (inactive) | > 30 µM (inactive) | CN1C/C=C/CCOc2cccc(c2)-c2ccnc(n2)Nc2cccc(c2)C1 [ZOTIRACICLIB]

Structure (SMILES) | Kd [1] | Kd [2] | Kd [3] | Kd [4] | Kd (Heme oxygenase 2) | Kd [5] | Kd [6] | Kd [7] | Kd [8]
Cc1cc(Nc2ncnc3ccc(NC4=NC(C)(C)CO4)cc23)ccc1Oc1ccn2ncnc2c1 [TUCATINIB] | > 30 µM (inactive) | > 30 µM (inactive) | > 30 µM (inactive) | > 30 µM (inactive) | > 30 µM (inactive) | > 30 µM (inactive) | > 30 µM (inactive) | > 30 µM (inactive) | > 30 µM (inactive)
